Laboratory results as given in patent EP4467141A1, “PYRAZOLO-QUINOLINES AS SELECTIVE INHIBITORS OF GENOTOXIC STRESS-INDUCED IKK/NF- KB PATHWAYS FOR CANCER THERAPY” (Max-Delbrück-Centrum für Molekulare Medizin in der …, priority 2023, dated 2024).

Key:
Assay in all cases: Kinase panel study
Type in all cases: biochemical
Conditions in all cases: read-out: Percentage of inhibition; for inhibition at 1 µM: 1000nM; for inhibition at 10 µM: 10000nM
PIM3 = molecular target: T1, PIM3 (Homo sapiens, UniProt Q86V86)
T1 construct: purchased Thermo Fisher Scientific
How it was run: (§1)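 Inhibition was measured in an outsourced in vitro kinase panel using the ZLyte or Adapta format under the provider's standard procedures. Values are percent inhibition at 10 µM or 1 µM compound, and IC50s were also obtained.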

STK4 (MST1) = molecular target: T2, STK4 (MST1) (Homo sapiens, UniProt Q13043)
T2 construct: purchased Thermo Fisher Scientific
T2 sequence (Q13043 1-487): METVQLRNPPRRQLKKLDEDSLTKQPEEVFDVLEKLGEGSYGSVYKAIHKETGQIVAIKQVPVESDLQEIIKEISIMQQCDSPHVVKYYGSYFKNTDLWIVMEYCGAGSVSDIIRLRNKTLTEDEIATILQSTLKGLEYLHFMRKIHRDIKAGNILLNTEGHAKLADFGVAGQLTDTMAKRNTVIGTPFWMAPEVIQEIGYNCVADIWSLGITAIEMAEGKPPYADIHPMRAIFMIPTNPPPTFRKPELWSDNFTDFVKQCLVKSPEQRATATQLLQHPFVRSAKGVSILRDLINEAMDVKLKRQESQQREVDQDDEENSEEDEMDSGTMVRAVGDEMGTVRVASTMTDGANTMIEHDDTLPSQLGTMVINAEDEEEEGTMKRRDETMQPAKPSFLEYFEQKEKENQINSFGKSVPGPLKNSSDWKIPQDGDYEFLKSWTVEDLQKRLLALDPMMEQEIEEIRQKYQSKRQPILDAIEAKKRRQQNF
How it was run: as §1

NUAK1 (ARK5) = molecular target: T3, NUAK1 (ARK5) (Homo sapiens, UniProt O60285)
T3 construct: purchased Thermo Fisher Scientific
T3 sequence (O60285 1-661): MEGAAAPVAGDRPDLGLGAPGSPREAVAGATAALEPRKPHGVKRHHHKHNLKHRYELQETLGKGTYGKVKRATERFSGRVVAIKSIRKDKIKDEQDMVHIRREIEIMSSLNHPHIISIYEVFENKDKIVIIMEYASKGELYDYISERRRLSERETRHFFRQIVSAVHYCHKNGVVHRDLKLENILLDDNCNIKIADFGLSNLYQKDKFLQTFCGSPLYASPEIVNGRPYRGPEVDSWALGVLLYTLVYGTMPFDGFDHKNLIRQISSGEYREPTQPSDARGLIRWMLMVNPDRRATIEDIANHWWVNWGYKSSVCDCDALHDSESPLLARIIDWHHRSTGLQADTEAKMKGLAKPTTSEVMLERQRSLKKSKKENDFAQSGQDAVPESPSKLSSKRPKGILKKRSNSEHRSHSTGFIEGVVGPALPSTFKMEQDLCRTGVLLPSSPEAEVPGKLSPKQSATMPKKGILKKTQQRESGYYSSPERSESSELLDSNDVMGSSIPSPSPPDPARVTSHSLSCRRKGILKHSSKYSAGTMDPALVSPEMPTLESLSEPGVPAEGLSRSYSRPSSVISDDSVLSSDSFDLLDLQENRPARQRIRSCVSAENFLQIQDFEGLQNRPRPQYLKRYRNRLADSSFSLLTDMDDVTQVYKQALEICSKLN
How it was run: as §1

RPS6KA6 (RSK4) = molecular target: T4, RPS6KA6 (RSK4) (Homo sapiens, UniProt Q9UK32)
T4 construct: purchased Thermo Fisher Scientific
How it was run: as §1

[1] = molecular target: T5, EGFR (ErbB1) T790M C797S L858R (Homo sapiens, UniProt P00533, C797S/L858R/T790M)
T5 construct: purchased Thermo Fisher Scientific
How it was run: as §1

ADRBK2 (GRK3) = molecular target: T6, ADRBK2 (GRK3) (Homo sapiens, UniProt P35626)
T6 construct: purchased Thermo Fisher Scientific
T6 sequence (P35626 1-688): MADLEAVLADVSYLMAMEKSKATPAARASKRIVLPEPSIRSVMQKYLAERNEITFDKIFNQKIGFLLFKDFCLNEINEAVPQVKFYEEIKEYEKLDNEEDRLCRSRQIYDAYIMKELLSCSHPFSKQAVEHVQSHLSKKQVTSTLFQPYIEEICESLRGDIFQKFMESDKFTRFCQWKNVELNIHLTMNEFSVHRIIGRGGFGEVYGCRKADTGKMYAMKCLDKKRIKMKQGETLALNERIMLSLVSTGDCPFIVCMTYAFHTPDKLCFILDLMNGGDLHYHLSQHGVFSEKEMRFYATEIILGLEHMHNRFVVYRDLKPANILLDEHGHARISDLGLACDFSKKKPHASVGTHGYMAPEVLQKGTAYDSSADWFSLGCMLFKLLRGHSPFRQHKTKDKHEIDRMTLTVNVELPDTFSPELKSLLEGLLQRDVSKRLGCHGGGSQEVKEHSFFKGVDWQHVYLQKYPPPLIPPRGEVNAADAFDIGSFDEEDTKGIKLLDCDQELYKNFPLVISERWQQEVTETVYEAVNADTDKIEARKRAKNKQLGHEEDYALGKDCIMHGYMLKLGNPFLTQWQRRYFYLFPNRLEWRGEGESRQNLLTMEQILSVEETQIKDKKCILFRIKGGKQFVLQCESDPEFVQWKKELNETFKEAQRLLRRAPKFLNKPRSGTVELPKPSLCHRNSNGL
How it was run: as §1

T5 sequence (P00533 25-1210 T790M/C797S/L858R): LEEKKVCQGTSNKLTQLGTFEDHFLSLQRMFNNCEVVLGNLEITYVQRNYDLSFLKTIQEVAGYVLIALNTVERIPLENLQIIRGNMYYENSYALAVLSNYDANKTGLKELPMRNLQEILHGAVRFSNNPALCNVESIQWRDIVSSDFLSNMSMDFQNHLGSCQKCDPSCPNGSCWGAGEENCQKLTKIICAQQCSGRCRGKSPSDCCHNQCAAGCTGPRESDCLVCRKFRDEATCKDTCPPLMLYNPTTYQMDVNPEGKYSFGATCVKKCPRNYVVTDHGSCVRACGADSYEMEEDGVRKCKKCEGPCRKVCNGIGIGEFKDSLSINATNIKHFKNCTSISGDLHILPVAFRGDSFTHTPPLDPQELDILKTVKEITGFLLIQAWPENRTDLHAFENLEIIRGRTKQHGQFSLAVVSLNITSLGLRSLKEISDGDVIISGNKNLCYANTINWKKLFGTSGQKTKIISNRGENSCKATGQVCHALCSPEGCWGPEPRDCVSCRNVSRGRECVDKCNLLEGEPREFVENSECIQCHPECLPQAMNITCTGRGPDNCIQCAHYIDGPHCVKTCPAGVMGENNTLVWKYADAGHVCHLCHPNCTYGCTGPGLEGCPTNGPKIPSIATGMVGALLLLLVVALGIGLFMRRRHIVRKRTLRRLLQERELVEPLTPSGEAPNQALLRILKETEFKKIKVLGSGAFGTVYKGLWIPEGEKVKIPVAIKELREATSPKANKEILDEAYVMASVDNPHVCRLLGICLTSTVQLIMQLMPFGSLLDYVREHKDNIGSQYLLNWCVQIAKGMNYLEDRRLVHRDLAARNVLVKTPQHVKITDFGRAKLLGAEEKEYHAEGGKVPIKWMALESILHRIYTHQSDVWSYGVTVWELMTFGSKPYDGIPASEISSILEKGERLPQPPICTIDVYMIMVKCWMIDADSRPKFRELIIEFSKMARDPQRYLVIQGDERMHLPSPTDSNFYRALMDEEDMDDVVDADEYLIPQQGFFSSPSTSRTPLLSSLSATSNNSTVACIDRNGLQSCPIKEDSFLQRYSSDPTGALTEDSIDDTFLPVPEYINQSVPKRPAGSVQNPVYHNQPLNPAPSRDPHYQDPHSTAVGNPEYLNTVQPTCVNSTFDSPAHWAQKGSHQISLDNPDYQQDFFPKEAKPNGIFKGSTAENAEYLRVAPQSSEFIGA
T4 sequence (Q9UK32 whole entry): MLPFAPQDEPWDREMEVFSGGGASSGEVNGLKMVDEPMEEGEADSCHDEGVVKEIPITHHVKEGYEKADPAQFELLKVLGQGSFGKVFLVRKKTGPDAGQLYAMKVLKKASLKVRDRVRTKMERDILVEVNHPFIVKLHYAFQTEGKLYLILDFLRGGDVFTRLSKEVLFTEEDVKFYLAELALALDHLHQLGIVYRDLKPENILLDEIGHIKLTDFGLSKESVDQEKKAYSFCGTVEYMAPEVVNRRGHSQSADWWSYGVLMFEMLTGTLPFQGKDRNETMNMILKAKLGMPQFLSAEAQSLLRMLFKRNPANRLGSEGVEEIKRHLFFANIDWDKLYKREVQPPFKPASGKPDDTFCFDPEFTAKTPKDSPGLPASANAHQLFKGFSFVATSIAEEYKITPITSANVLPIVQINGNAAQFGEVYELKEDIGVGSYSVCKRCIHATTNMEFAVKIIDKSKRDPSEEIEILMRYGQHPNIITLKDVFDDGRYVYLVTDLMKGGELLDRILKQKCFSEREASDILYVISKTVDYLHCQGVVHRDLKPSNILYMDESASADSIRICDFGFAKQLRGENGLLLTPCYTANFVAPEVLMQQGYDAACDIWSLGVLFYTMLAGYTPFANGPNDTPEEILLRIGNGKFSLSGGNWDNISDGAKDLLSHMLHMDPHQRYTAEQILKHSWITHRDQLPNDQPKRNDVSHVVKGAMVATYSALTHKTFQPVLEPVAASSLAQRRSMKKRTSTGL

Row | Compound | inhibition at 1 µM (PIM3) | inhibition at 10 µM (PIM3) | inhibition at 1 µM (STK4 (MST1)) | inhibition at 10 µM (STK4 (MST1)) | inhibition at 1 µM (NUAK1 (ARK5)) | inhibition at 10 µM (NUAK1 (ARK5)) | inhibition at 1 µM (RPS6KA6 (RSK4)) | inhibition at 10 µM (RPS6KA6 (RSK4)) | inhibition at 1 µM [1] | inhibition at 10 µM [1] | inhibition at 1 µM (ADRBK2 (GRK3)) | inhibition at 10 µM (ADRBK2 (GRK3))
1 | COc1ccc2c(c1OC)c(=O)n1c3ccc(O)cc3c3ccnc2c31 [MW01, 5-Hydroxy-10,11-dimethoxy-9H-benzo[c]indolo[3,2,1-ij][1,5]naphthyridin-9-one] | 22% | 42% | 4% | 11% | 48% | 66% | 5% | 17% | 2% | 12% | 0% | 5%
2 | COc1ccc2cc3c(N)nn(C(=O)c4cccc(N(C)C)c4)c3nc2c1 [MW05, (3-Amino-7-methoxypyrazolo[3,4-b]quinolin-1-yl)-[3-(dimethylamino)phenyl]methanone] | 11% | 2% | 4% | 3% | 6% | 11% | 2% | 4% | 1% | 2% | 2% | -3%
